This is an account of results in ChEMBL document CHEMBL1127946, “The squalestatins: Potent inhibitors of squalene synthase, 3-hydroxymethyl derivatives” (Bioorg Med Chem Lett, 1994).

This experiment concerns the target T1, Squalene synthase (Rattus norvegicus, UniProt Q02769).
T1 sequence (Q02769 whole entry): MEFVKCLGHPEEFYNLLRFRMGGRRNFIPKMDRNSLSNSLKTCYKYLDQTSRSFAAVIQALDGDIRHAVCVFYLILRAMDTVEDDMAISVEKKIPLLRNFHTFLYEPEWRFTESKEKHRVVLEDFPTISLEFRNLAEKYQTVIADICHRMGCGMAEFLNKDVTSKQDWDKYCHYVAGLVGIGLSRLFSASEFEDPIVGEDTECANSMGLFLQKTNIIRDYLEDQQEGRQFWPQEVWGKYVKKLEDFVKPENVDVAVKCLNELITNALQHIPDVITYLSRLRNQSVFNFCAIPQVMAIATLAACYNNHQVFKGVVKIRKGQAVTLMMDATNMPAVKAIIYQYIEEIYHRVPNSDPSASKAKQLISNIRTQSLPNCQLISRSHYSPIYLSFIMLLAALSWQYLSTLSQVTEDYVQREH
In words: In vitro inhibition of rat squalene synthase.
What is called IC50 is the concentration needed to halve the response being measured. A lower IC50 goes with greater potency in that assay. `C=C(CC[C@]12OC[C@@](O)(C(=O)O)[C@](C(=O)O)(O1)[C@H](O)[C@H]2O)[C@@H](OC(C)=O)[C@H](C)Cc1ccccc1` yielded an IC50 of 25000 nM.

In the case of `C=C(CC[C@]12O[C@H](CO)[C@@](O)(C(=O)O)[C@](C(=O)O)(O1)[C@H](OC(=O)CCC)[C@H]2O)[C@@H](OC(C)=O)[C@H](C)Cc1ccccc1`, half-maximal inhibition (IC50) was put at 800 nM. `C=C(CC[C@]12O[C@H](CO)[C@@](O)(C(=O)O)[C@](C(=O)O)(O1)[C@H](OC(=O)/C=C/[C@@H](C)C[C@@H](C)CC)[C@H]2O)[C@@H](O)[C@H](C)Cc1ccccc1`: the IC50 was determined as 21 nM. Regarding `C=C(CC[C@]12O[C@H](CO)[C@@](O)(C(=O)O)[C@](C(=O)O)(O1)[C@H](O)[C@H]2O)[C@@H](OC(C)=O)[C@H](C)Cc1ccccc1`, the concentration for half-maximal inhibition (IC50) was determined as 395 nM. The compound `C=C(CC[C@]12O[C@H](CO)[C@@](O)(C(=O)O)[C@](C(=O)O)(O1)[C@H](OC(=O)/C=C/[C@@H](C)C[C@@H](C)CC)[C@H]2O)[C@@H](OC(C)=O)[C@H](C)Cc1ccccc1` had an IC50 of 15 nM.

On to `C=C(CC[C@]12O[C@H](CO)[C@@](O)(C(=O)O)[C@](C(=O)O)(O1)[C@H](OC(=O)CCCCCC)[C@H]2O)[C@@H](OC(C)=O)[C@H](C)Cc1ccccc1`, for which the half-maximal inhibitory concentration (IC50) was 245 nM. With `C=C(CC[C@]12O[C@H](CO)[C@@](O)(C(=O)O)[C@](C(=O)O)(O1)[C@H](OC(=O)CC[C@@H](C)C[C@@H](C)CC)[C@H]2O)[C@@H](O)[C@H](C)Cc1ccccc1` the figure was 22 nM. With `CC[C@H](C)C[C@H](C)CCC(=O)O[C@@H]1[C@@H](O)[C@@]2(CCC(=O)[C@@H](O)[C@H](C)Cc3ccccc3)O[C@H](CO)[C@@](O)(C(=O)O)[C@]1(C(=O)O)O2`, inhibition was half-maximal at 740 nM (IC50). The compound `C=C(CC[C@]12O[C@H](CO)[C@@](O)(C(=O)OC)[C@](C(=O)O)(O1)[C@H](OC(=O)/C=C/[C@@H](C)C[C@@H](C)CC)[C@H]2O)[C@@H](OC(C)=O)[C@H](C)Cc1ccccc1` yielded an IC50 of 79 nM. Compound `C=C(CC[C@]12O[C@H](CO)[C@@](O)(C(=O)O)[C@](C(=O)O)(O1)[C@H](OC(=O)CCCCCCCC)[C@H]2O)[C@@H](OC(C)=O)[C@H](C)Cc1ccccc1` displayed an IC50 of 140 nM. `C=C(CC[C@]12O[C@H](CO)[C@@](O)(C(=O)O)[C@](C(=O)O)(O1)[C@H](OC(=O)CC[C@@H](C)C[C@@H](C)CC)[C@H]2O)[C@@H](OC(C)=O)[C@H](C)Cc1ccccc1` returned an IC50 of 44 nM. In turn, `C=C(CC[C@]12O[C@H](CO)[C@@](O)(C(=O)O)[C@](C(=O)O)(O1)[C@H](OC(=O)CCC(C)C)[C@H]2O)[C@@H](OC(C)=O)[C@H](C)Cc1ccccc1` returned a concentration for half-maximal inhibition (IC50) of 119 nM. With `C=C(CC[C@]12OC[C@@](O)(C(=O)O)[C@](C(=O)O)(O1)[C@H](OC(=O)/C=C/[C@@H](C)C[C@@H](C)CC)[C@H]2O)[C@@H](OC(C)=O)[C@H](C)Cc1ccccc1` the figure was 23 nM.
